Laboratory results published in patent US20250019369A1, “N-(4-aminocyclohexyl)pyrimidine-4-carboxamide derivatives as CD38 inhibitors” (Cerevance, Inc., priority 2021, published 2025).
pIC50: −log10 of the molar value. Like-named read-outs stand apart in the source and are kept apart here.

Columns and labels:
Recombinant human CD38 = Recombinant human CD38 (Homo sapiens (Human), UniProt P28907); assay: Human CD38 hydrolase assay (fluorescence, ε-NAD substrate); type: biochemical; conditions: recombinant human CD38 0.8 nM, 4 μM ε-NAD, 30 min preincubation at 25° C., pH 7.4
Sequence of Recombinant human CD38 (P28907 whole entry): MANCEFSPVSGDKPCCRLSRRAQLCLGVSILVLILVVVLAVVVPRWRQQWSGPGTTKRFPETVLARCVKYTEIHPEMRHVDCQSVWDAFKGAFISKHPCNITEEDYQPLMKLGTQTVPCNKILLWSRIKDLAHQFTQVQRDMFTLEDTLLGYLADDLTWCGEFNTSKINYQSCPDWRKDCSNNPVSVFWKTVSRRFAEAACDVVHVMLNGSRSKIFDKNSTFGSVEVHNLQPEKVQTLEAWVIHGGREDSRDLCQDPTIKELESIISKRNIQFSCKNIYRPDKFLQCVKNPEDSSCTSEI
Experimental: The ability of test compounds to inhibit human CD38 hydrolase activity was measured in a fluorescence-based assay using non-physiological NAD^+ substrate analogue 1,N^6-etheno NAD^+ (ε-NAD). Recombinant human CD38 (0.8 nM) was preincubated with test compounds in 384-well black microplates for 30 min at 25° C. in PBS (—Ca^2+/Mg^2+) containing 0.005% BSA (pH 7.4). CD38 hydrolase activity was initiated by addition of 4 μM ε-NAD, which yields the fluorescent product 1,N^6-etheno ADP-ribose. Formation of fluorescent product was followed using ClarioStar Plus (BMG) microplate reader by reading fluorescence (excitation λ=300 nm; emission λ=410 nm) at two time points, one immediately after substrate addition (t=0) and one at 10 min (t=10).
Data was analysed by subtracting the values detected at t=0 from t=10 to correct for variation in baseline fluorescence. Fluorescence values were converted to percent inhibition using the average of high signal (CD38 and ε-NAD) and low signal (CD38 and ε-NAD in the presence of a tool CD38 inhibitor) control wells. IC50 values were determined from a 10-point, half log concentration response curve with a four-parameter logistic equation.

[1] = PK brain permeability in C57BL/6 mice after single oral gavage; type: in vivo; conditions: 2 hours post dose; for concentration at 2 h / Kpu,u (unbound brain/plasma partition coefficient) at 2 h: male, C57BL/6, mouse; for concentration at 2 h: po, 10 mg/kg; for Kpu,u (unbound brain/plasma partition coefficient) at 2 h / brain permeability (in words): oral 10 mg/kg; for Kpu,u (unbound brain/plasma partition coefficient) at 2 h: read-out: Kpu,u (unbound partitioning coefficient, Cb,u/Cp,u); for brain permeability (in words): comment on Table 3
Experimental: The distribution of compounds into the brain in vivo was determined in C57BL/6 mice following single oral (po) gavage administration.
Test compounds were formulated at 1 mg/mL in 0.5% HPMC E4 M, 0.2% Tween 80 in water to achieve solutions or homogenous suspensions suitable for po administration.
Formulations were administered to 3 male C57BL/6 mice at a volume of 10 mL/kg resulting in a dose level of 10 mg/kg. Blood samples were collected at 1 and 2 hours post dose into tubes containing K2EDTA as anticoagulant, processed to plasma and stored at −60° C. or lower until LC-MS/MS analysis. Brains were harvested 2 hours post dose, rinsed with saline, dried, weighed and homogenised under ice cold conditions. Brain homogenates were stored at −60° C. or lower until LC-MS/MS analysis.
Dose formulation concentrations were verified using a LC-UV or LC-MS/MS method. Test compound concentrations in plasma and brain homogenate were quantitatively determined using LC-MS/MS methods developed in individual matrices against calibration curves with QC samples included and acceptance criteria as per CRO SOPs. Concentrations in brain homogenate were corrected for the dilution factor used to prepare the homogenate to give concentrations in whole brain tissue.
Plasma and brain concentration versus time data were reported and plotted in excel. The brain to plasma ratio at 2 hours post dose was calculated for each animal using the following equation:
Brain:plasma=brain concentration (ng/g) at 2 h/plasma concentration (ng/mL) at 2 h
As only unbound test compound is available to exert an effect on the target, unbound plasma (Cp,u) and unbound brain (Cb,u) concentrations were calculated by correcting the total concentrations for the unbound fraction in plasma (fu,p) or brain (fu,b) determined from in vitro plasma protein or brain tissue binding assays using the following equations: […]
The unbound partitioning coefficient (Kpu,u) was then calculated based on the ratio of Cb,u to Cp,u using the following equation: […]
In these studies, mice were orally administrated a 10 mg/kg dose and sacrificed 2 hours post dose and tissue samples (brain homogenate and plasma) were analyzed subsequently as described above.

[2] = brain, read-out: total brain conc.
[3] = brain, total corrected for unbound fraction in brain, read-out: free brain conc.
[4] = plasma, read-out: total plasma conc.
[5] = plasma, total corrected for unbound fraction in plasma, read-out: free plasma conc.

SMILES	pIC50 (Recombinant human CD38)	concentration at 2 h [1, 2] [nM]	concentration at 2 h [1, 3] [nM]	Kpu,u (unbound brain/plasma partition coefficient) at 2 h [1]	concentration at 2 h [1, 4] [nM]	concentration at 2 h [1, 5] [nM]	brain permeability (in words) [1]
Cc1cc(C(=O)N[C@H]2CC[C@H](NCC(F)(F)F)CC2)nc(-n2ccnc2)n1 [Example 1, 2-(1H-imidazol-1-yl)-6-methyl-N-((1r,4r)-4-((2,2,2-trifluoroethyl)amino)cyclohexyl)pyrimidine-4-carboxamide]	≥ 7.40	5510	3800	1.33	21900	2850	–
Cc1cc(C(=O)N[C@H]2CC[C@H](NCC(F)F)CC2)nc(-n2ccnc2)n1 [Example 2, N-((1r,4r)-4-((2,2-difluoroethyl)amino)cyclohexyl)-2-(1H-imidazol-1-yl)-6-methyl-pyrimidine-4-carboxamide]	≥ 7.40	2190	1390	0.65	9370	2130	–
O=C(N[C@H]1CC[C@H](NCC(F)F)CC1)c1cc(C2CC2)nc(-n2ccnc2)n1 [Example 3, 6-cyclopropyl-N-((1r,4r)-4-((2,2-difluoroethyl)amino)cyclohexyl)-2-(1H-imidazol-1-yl)pyrimidine-4-carboxamide]	≥ 7.40	1660	224	0.48	6390	469	–
Cc1cc(C(=O)N[C@H]2CC[C@H](N3CCC(F)(F)C3)CC2)nc(-n2ccnc2)n1 [Example 10, N-((1r,4r)-4-(3,3-difluoropyrrolidin-1-yl)cyclohexyl)-2-(1H-imidazol-1-yl)-6-methyl-pyrimidine-4-carboxamide]	≥ 7.40	5200	507	0.32	15100	1610	excellent brain permeability
Cc1cc(C(=O)N[C@H]2CC[C@H](NC(C)(C)C(F)(F)F)CC2)nc(-n2ccnc2)n1 [Example 21, 2-(1H-imidazol-1-yl)-6-methyl-N-((1r,4r)-4-((1,1,1-trifluoro-2-methylpropan-2-yl)amino)cyclohexyl)pyrimidine-4-carboxamide]	≥ 7.00	5470	197	0.4	11900	494	excellent brain permeability
